According to patent publication US20240002391A1, “4-ALKOXYPYRROLO[2,1-F][1,2,4]TRIAZINES AND PREPARATION AND USES THEREOF” (BioSplice Therapeutics, Inc., priority 2022, published 2024):

Target: recombinant DYRK1A kinase (Homo sapiens (Human), UniProt Q13627)
Experiment: DYRK1A kinase assay (Ser/Thr 18 peptide Z-lyte FRET)
Assay type: biochemical
Settings: DYRK1A kinase activity, Z-lyte Ser/Thr 18 peptide, 15 μM ATP; method text calls the value IC50; read-out: EC50 (the source's name)
Outline: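 Z-lyte FRET: recombinant DYRK1A 0.25 μg/mL, ATP 15 μM, Ser/Thr 18 peptide 4 μM, with compound (11-point 1:3, 10 μM top) 1 h at room temperature, then development reagent 1 h. Coumarin/fluorescein emission ratio converted to % phosphorylation; IC50 by non-linear regression, duplicates.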

SMILES	IC50
CC(=O)N1C[C@H](F)[C@H](Nc2nc(O)c3c(-c4cnc5nccn5c4)ccn3n2)C1 [Compound 263, 1-((3S,4R)-3-Fluoro-4-((4-hydroxy-5-(imidazo[1,2-a]pyrimidin-6-yl)pyrrolo[2,1-f][1,2,4]triazin-2-yl)amino)pyrrolidin-1-yl)ethan-1-one]	112 nM
COc1nc(N[C@@H]2CN(C(C)=O)C[C@@H]2F)nn2ccc(-c3cnc4nccn4c3)c12 [Compound 264, 1-((3S,4R)-3-Fluoro-4-((5-(imidazo[1,2-a]pyrimidin-6-yl)-4-methoxypyrrolo[2,1-f][1,2,4]triazin-2-yl)amino)pyrrolidin-1-yl)ethan-1-one]	3.5 nM
Oc1nc(N[C@@H]2CN(C3COC3)C[C@@H]2F)nn2ccc(-c3cnc4nccn4c3)c12 [Compound 265, 2-(((3R,4S)-4-fluoro-1-(oxetan-3-yl)pyrrolidin-3-yl)amino)-5-(imidazo[1,2-a]pyrimidin-6-yl)pyrrolo[2,1-f][1,2,4]triazin-4-ol]	58.9 nM
COc1nc(N[C@@H]2CN(C3COC3)C[C@@H]2F)nn2ccc(-c3cnc4nccn4c3)c12 [Compound 266, N-((3R,4S)-4-Fluoro-1-(oxetan-3-yl)pyrrolidin-3-yl)-5-(imidazo[1,2-a]pyrimidin-6-yl)-4-methoxypyrrolo[2,1-f][1,2,4]triazin-2-amine]	2.9 nM
COc1nc(N[C@@H]2CCN(C)C[C@@H]2F)nn2ccc(-c3cnc4nccn4c3)c12 [Compound 267, N-((3S,4R)-3-Fluoro-1-methylpiperidin-4-yl)-5-(imidazo[1,2-a]pyrimidin-6-yl)-4-methoxypyrrolo[2,1-f][1,2,4]triazin-2-amine]	4.8 nM
COc1nc(N[C@H]2CCN(C)C[C@H]2F)nn2ccc(-c3cnc4nccn4c3)c12 [Compound 268, N-((3R,4S)-3-Fluoro-1-methylpiperidin-4-yl)-5-(imidazo[1,2-a]pyrimidin-6-yl)-4-methoxypyrrolo[2,1-f][1,2,4]triazin-2-amine]	5 nM
COc1nc(N[C@@H]2CCN(C3COC3)C[C@@H]2F)nn2ccc(-c3cnc4nccn4c3)c12 [Compound 269, N-((3S,4R)-3-Fluoro-1-(oxetan-3-yl)piperidin-4-yl)-5-(imidazo[1,2-a]pyrimidin-6-yl)-4-methoxypyrrolo[2,1-f][1,2,4]triazin-2-amine]	2.3 nM
COc1nc(N[C@H]2CCN(C3COC3)C[C@H]2F)nn2ccc(-c3cnc4nccn4c3)c12 [Compound 270, N-((3R,4S)-3-Fluoro-1-(oxetan-3-yl)piperidin-4-yl)-5-(imidazo[1,2-a]pyrimidin-6-yl)-4-methoxypyrrolo[2,1-f][1,2,4]triazin-2-amine]	5.1 nM
COc1nc(NC2CCOCC2)nn2ccc(-c3cnc4nccn4c3)c12 [Compound 271, 5-(Imidazo[1,2-a]pyrimidin-6-yl)-4-methoxy-N-(tetrahydro-2H-pyran-4-yl)pyrrolo[2,1-f][1,2,4]triazin-2-amine]	3.8 nM
COc1nc(NC2CCC3(CC2)CN(C(C)=O)C3)nn2ccc(-c3cnc4nccn4c3)c12 [Compound 273, 1-(7-((5-(Imidazo[1,2-a]pyrimidin-6-yl)-4-methoxypyrrolo[2,1-f][1,2,4]triazin-2-yl)amino)-2-azaspiro[3.5]nonan-2-yl)ethan-1-one]	1.8 nM
COc1nc(N[C@H]2CC[C@]3(CCO3)CC2)nn2ccc(-c3cnc4nccn4c3)c12 [Compound 274, 5-(Imidazo[1,2-a]pyrimidin-6-yl)-4-methoxy-N-((4s,7s)-1-oxaspiro[3.5]nonan-7-yl)pyrrolo[2,1-f][1,2,4]triazin-2-amine]	1 nM

Continued, values first:

IC50	SMILES
3.4 nM	COc1nc(N[C@H]2CC[C@@]3(CCO3)CC2)nn2ccc(-c3cnc4nccn4c3)c12 [Compound 275, 5-(Imidazo[1,2-a]pyrimidin-6-yl)-4-methoxy-N-((4r,7r)-1-oxaspiro[3.5]nonan-7-yl)pyrrolo[2,1-f][1,2,4]triazin-2-amine]
63.3 nM	COc1nc(N[C@H]2C[C@@](C)(O)C2)nn2ccc(-c3cc4ncccc4[nH]3)c12 [Compound 277, cis-3-((4-Methoxy-5-(1H-pyrrolo[3,2-b]pyridin-2-yl)pyrrolo[2,1-f][1,2,4]triazin-2-yl)amino)-1-methylcyclobutan-1-ol]
33.4 nM	COc1nc(N[C@H]2CC[C@](C)(O)CC2)nn2ccc(-c3cc4ncccc4[nH]3)c12 [Compound 280, trans-4-((4-Methoxy-5-(1H-pyrrolo[3,2-b]pyridin-2-yl)pyrrolo[2,1-f][1,2,4]triazin-2-yl)amino)-1-methylcyclohexan-1-ol]
6.6 nM	COc1nc(N[C@H]2C[C@@](C)(O)C2)nn2ccc(-c3cc4cnccc4[nH]3)c12 [Compound 281, cis-3-((4-Methoxy-5-(1H-pyrrolo[3,2-c]pyridin-2-yl)pyrrolo[2,1-f][1,2,4]triazin-2-yl)amino)-1-methylcyclobutan-1-ol]
13.6 nM	COc1nc(N[C@H]2CC[C@](C)(O)CC2)nn2ccc(-c3cc4cnccc4[nH]3)c12 [Compound 282, trans-4-((4-Methoxy-5-(1H-pyrrolo[3,2-c]pyridin-2-yl)pyrrolo[2,1-f][1,2,4]triazin-2-yl)amino)-1-methylcyclohexan-1-ol]
110 nM	COc1nc(N[C@H]2C[C@@](C)(O)C2)nn2ccc(-c3cc4ccncc4[nH]3)c12 [Compound 283, cis-3-((4-Methoxy-5-(1H-pyrrolo[2,3-c]pyridin-2-yl)pyrrolo[2,1-f][1,2,4]triazin-2-yl)amino)-1-methylcyclobutan-1-ol]
235 nM	COc1nc(N[C@H]2CC[C@](C)(O)CC2)nn2ccc(-c3cc4ccncc4[nH]3)c12 [Compound 284, trans-4-((4-Methoxy-5-(1H-pyrrolo[2,3-c]pyridin-2-yl)pyrrolo[2,1-f][1,2,4]triazin-2-yl)amino)-1-methylcyclohexan-1-ol]
2.2 nM	COc1nc(N[C@H]2C[C@H](C(C)(C)O)C2)nn2ccc(-c3ccc4ncccc4c3)c12 [Compound 287, 2-(trans-3-((4-methoxy-5-(quinolin-6-yl)pyrrolo[2,1-f][1,2,4]triazin-2-yl)amino)cyclobutyl)propan-2-ol]
2.6 nM	COc1nc(N[C@H]2C[C@@](C)(NC(C)=O)C2)nn2ccc(-c3ccc4ncccc4c3)c12 [Compound 288, N-(cis-3-((4-Methoxy-5-(quinolin-6-yl)pyrrolo[2,1-f][1,2,4]triazin-2-yl)amino)-1-methylcyclobutyl)acetamide]
1.8 nM	COc1nc(N[C@H]2C[C@](C)(C(=O)N(C)C)C2)nn2ccc(-c3ccc4ncccc4c3)c12 [Compound 290, trans-3-((4-Methoxy-5-(quinolin-6-yl)pyrrolo[2,1-f][1,2,4]triazin-2-yl)amino)-N,N,1-trimethylcyclobutane-1-carboxamide]
14.3 nM	COc1nc(NC2CCN(CC(F)F)CC2)nn2ccc(-c3ccc4ncccc4c3)c12 [Compound 304, N-(1-(2,2-Difluoroethyl)piperidin-4-yl)-4-methoxy-5-(quinolin-6-yl)pyrrolo[2,1-f][1,2,4]triazin-2-amine]
80.7 nM	COc1nc(NC2CCN(CC(F)(F)F)CC2)nn2ccc(-c3ccc4ncccc4c3)c12 [Compound 305, 4-Methoxy-5-(quinolin-6-yl)-N-(1-(2,2,2-trifluoroethyl)piperidin-4-yl)pyrrolo[2,1-f][1,2,4]triazin-2-amine]
